Test results as given in patent publication US11866482B2, “System and method for homogenous GPCR phosphorylation and identification of beta-2 adrenergic receptor positive allosteric modulators” (Duke University, priority 2018, dated 2024).
Values belong to the compound of their own block, whether it stands above or below them.

Key:
M2Rpp [1] = target: T1, M2Rpp (Homo sapiens, UniProt P08172); test: In vitro G protein GTPase assay, M2Rpp HDLs (Gi); details: FIG. 11
T1 sequence (P08172 1-466): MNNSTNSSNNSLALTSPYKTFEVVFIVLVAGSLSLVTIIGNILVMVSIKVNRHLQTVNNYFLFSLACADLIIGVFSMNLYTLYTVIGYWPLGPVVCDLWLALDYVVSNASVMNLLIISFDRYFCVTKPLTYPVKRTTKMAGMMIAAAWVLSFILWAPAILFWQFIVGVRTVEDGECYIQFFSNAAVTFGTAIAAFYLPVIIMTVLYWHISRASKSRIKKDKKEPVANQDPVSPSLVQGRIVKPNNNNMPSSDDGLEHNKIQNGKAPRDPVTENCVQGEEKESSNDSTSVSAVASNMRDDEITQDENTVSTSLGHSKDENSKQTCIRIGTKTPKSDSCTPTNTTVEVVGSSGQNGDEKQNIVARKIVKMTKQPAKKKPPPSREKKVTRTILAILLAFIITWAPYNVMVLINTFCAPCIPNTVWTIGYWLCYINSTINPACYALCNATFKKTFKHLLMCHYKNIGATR
Description: (§1) G protein GTPase Assay: The GTPase activity of Gαs or Gαi was measured in vitro using the GTPase Glo Assay (Promega) with the following modifications. Final reaction buffer consisted of 20 mM HEPES, pH 7.4, 100 mM NaCl, 10 mM MgCl2, and 1 mg/mL BSA. HDL-β2AR (4 nM), −M2R (100 nM), or MOR (100 nM) was incubated in the absence or presence of the indicated agonist (5 μM) and βarr1 (1 μM) for 15 min at room temperature.
(§2) To test this, an in vitro GTPase activity assay was performed that can quantitatively measure agonist-induced receptor activation of G protein.

M2Rpp [2] = target: T1, M2Rpp; test: [3H]-NMS competition binding, sortase-ligated M2Rpp HDLs
Description: (§3) Radioligand Binding: All equilibrium competition radioligand binding studies were conducted in a final volume of 200 μL containing HDL-receptor, radioligand, a titration of unlabeled competitor, and the presence or absence of the indicated transducer protein. All components were diluted in assay buffer containing 20 mM HEPES, pH 7.4, 100 mM NaCl, and 1 mg/mL bovine serum albumin (BSA). […] G protein or βarr1 were used at a final concentration of 100 nM or 1 μM, respectively, unless specified otherwise. Binding reactions proceeded at room temperature and were harvested onto glass-fiber filters (GFB) with 0.3% polyethyleneimine (PEI) using a 96-well Brandel harvester. Binding data were analyzed in GraphPad Prism using a sigmoidal dose-response curve fit, and differences in log IC50 values were analyzed by one-way ANOVA.

β2AR [3] = target: T2, β2AR (Homo sapiens, UniProt P07550); test: ISO-induced G protein-mediated cAMP production, endogenously expressed β2AR; format: cell-based; details: FIGS. 15A and 15B
β2AR [4] = target: T2, β2AR; test: 3H-FEN agonist binding to β2AR in cell membranes; set-up: host or cells: cell membranes
Description: Accordingly, these 50 potential hits from the selection were tested for their ability to increase binding of a radiolabeled agonist, ^3H-fenoterol (^3H-FEN) to the β2AR in membrane preparations, both in the absence and presence of transducers (FIGS. 14E and 14F).
Another feature of allosteric molecules observed in both binding experiments is the “ceiling” effect.

β2AR [5] = target: β2AR (Homo sapiens, UniProt P07550, N187E); test: ISO competition binding against 125I-CYP in presence of PAM, β2AR reconstituted in HDL particles; details: ISO vs 125I-CYP
β1AR = β1AR (Homo sapiens, UniProt P08588); test: β1AR-mediated cAMP production; format: cell-based; details: FIG. 21B
MORpp [6] = target: T3, MORpp (Homo sapiens, UniProt P35372); test: In vitro G protein GTPase assay, MORpp HDLs (Gi); details: FIG. 11
Description: as §1, §2

MORpp [7] = target: T3, MORpp; test: [3H]-Naloxone competition binding, sortase-ligated MORpp HDLs
Description: as §3

T3 sequence (P35372 with tags, fused parts or gaps): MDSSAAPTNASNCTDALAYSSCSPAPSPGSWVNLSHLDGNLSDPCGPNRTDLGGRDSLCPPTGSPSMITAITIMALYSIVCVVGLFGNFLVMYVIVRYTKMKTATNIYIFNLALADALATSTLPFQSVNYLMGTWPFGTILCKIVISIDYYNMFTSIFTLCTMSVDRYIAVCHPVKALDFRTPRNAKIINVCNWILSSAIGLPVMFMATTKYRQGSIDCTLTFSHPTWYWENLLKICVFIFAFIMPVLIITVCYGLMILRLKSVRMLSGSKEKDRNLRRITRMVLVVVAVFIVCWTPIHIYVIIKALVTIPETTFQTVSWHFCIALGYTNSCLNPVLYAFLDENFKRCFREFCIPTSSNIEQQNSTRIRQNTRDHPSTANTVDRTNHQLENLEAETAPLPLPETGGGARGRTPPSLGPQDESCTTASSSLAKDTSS
β1AR, sequence (P08588 whole entry): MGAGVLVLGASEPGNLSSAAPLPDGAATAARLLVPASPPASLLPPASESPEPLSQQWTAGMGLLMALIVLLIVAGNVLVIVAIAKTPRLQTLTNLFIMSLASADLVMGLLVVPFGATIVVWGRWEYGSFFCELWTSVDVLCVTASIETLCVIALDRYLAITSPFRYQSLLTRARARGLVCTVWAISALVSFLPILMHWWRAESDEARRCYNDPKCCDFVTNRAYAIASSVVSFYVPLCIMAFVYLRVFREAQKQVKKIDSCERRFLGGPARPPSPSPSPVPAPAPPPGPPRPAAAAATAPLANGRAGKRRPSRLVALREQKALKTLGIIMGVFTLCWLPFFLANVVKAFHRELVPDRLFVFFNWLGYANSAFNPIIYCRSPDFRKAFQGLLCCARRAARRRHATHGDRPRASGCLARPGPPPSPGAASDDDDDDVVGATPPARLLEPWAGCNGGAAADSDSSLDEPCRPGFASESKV

SMILES: C[N+](C)(C)CC#CCOC1=NOCC1 [iperoxo]
G protein activation (GTP hydrolysis) (M2Rpp [1]): increases G protein activation | effects of G protein and βarr on agonist affinity (M2Rpp [2]; FIGS. 9E and 9F): comparable effects of G protein and βarr

SMILES: C[C@@H](NC(=O)[C@@H](N)Cc1ccc(O)cc1)C(=O)NCC(=O)N(C)[C@@H](Cc1ccccc1)C(=O)NCCO [DAMGO]
G protein activation (GTP hydrolysis) (MORpp [6]): increases G protein activation | increase in agonist affinity by βarr1 (MORpp [7]): 2 fold | increase in agonist affinity induced by G protein (MORpp [7]; Gi heterotrimer): > 100 fold

The next lines start with results.

increase in agonist affinity by βarr1 (M2Rpp [2]): 57 fold | increase in agonist affinity induced by G protein (M2Rpp [2]; Gi heterotrimer): > 100 fold
SMILES: C[N+](C)(C)CCOC(N)=O [carbachol]

increase in 3H-FEN binding to the β2AR (β2AR [4]): dose-dependently increase the binding | potentiation of the IC50 value of ISO (β2AR [5]): ~30 fold
SMILES: COc1ccc(Sc2ccc(S(=O)(=O)Nc3cccc(F)c3)cc2C(=O)N[C@@H](CC(N)=O)Cc2ccc(C(C)(C)C)cc2)cc1 [Cmpd-43, (R)—N-(4-Amino-1-(4-(tert-butyl)phenyl)-4-oxobutan-2-yl)-5-(N-(3-fluorophenyl)sulfamoyl)-2-((4-methoxyphenyl)thio)benzamide]
effect on ISO-induced cAMP production (β2AR [3]): increased the maximal response induced by ISO as well as potentiated the EC50 value

changes in ISO dose response pattern of cAMP production (β1AR): Marginal changes
SMILES: COc1ccc(Sc2ccc(S(=O)(=O)N(C)C(C)C)cc2C(=O)N[C@@H](CC(N)=O)Cc2ccc(C(C)(C)C)cc2)cc1 [Cmpd-6, (R)—N-(4-Amino-1-(4-(tert-butyl)phenyl)-4-oxobutan-2-yl)-5-(N-isopropyl-N-methylsulfamoyl)-2-((4-methoxyphenyl)thio)benzamide]
